Reference: PubChem BioAssay AID1259407 (Chemical Carcinogenesis Research Information System (CCRIS), 2018)
Activity calls are given as the source filed them. How the calls were made is not given here.

Test system: CCRIS mutagenicity, Ames/micronucleus/aberration tests
Assay: CCRIS mutagenicity studies
[1] = Test System: AMES SALMONELLA TYPHIMURIUM, Strain/Indicator: TA98, Metabolic Activation: NONE, Method: STANDARD PLATE
[2] = Test System: AMES SALMONELLA TYPHIMURIUM, Strain/Indicator: TA100, Metabolic Activation: NONE, Method: STANDARD PLATE
[3] = Test System: AMES SALMONELLA TYPHIMURIUM, Strain/Indicator: TA1535, Metabolic Activation: NONE, Method: STANDARD PLATE
[4] = Test System: AMES SALMONELLA TYPHIMURIUM, Strain/Indicator: TA1537, Metabolic Activation: NONE, Method: STANDARD PLATE

**Q.** Which results are given for CCOC(=O)CC1OCCc2c1[nH]c1c(CC)c(O)ccc21 (centres undefined)?
**A.** mutagenic call [1]: inactive; negative; mutagenic call (Test System: AMES SALMONELLA TYPHIMURIUM, Strain/Indicator: TA98, Metabolic Activation: RAT, LIVER, S-9 (10 OR 50 µL/PLATE), Method: STANDARD PLATE): inactive; negative; mutagenic call [2]: inactive; negative; mutagenic call (Test System: AMES SALMONELLA TYPHIMURIUM, Strain/Indicator: TA100, Metabolic Activation: RAT, LIVER, S-9 (10 OR 50 µL/PLATE), Method: STANDARD PLATE): inactive; negative; mutagenic call [3]: active; positive; mutagenic call (Test System: AMES SALMONELLA TYPHIMURIUM, Strain/Indicator: TA1535, Metabolic Activation: RAT, LIVER, S-9 (10 OR 50 µL/PLATE), Method: STANDARD PLATE): active; positive; mutagenic call [4]: inactive; negative; mutagenic call (Test System: AMES SALMONELLA TYPHIMURIUM, Strain/Indicator: TA1537, Metabolic Activation: RAT, LIVER, S-9 (10 OR 50 µL/PLATE), Method: STANDARD PLATE): inactive; negative; mutagenic call (Test System: E. COLI, Strain/Indicator: WP2 UVRA, Metabolic Activation: NONE, Method: STANDARD PLATE): inactive; negative; mutagenic call (Test System: E. COLI, Strain/Indicator: WP2 UVRA, Metabolic Activation: RAT, LIVER, S-9 (10 OR 50 µL/PLATE), Method: STANDARD PLATE): inactive; negative

**Q.** How did the mutagenic call (Test System: AMES SALMONELLA TYPHIMURIUM, Strain/Indicator: TA97, Metabolic Activation: HAMSTER, LIVER, S-9, AROCLOR 1254 (10%), Method: PREINCUBATION) turn out when O=C(O)c1ccccc1[N+](=O)[O-] was run?
**A.** inactive; negative

**Q.** And the mutagenic call (Test System: AMES SALMONELLA TYPHIMURIUM, Strain/Indicator: TA97, Metabolic Activation: NONE, Method: PREINCUBATION)?
**A.** inactive; negative

**Q.** And the mutagenic call (Test System: AMES SALMONELLA TYPHIMURIUM, Strain/Indicator: TA97, Metabolic Activation: RAT, LIVER, S-9, AROCLOR 1254 (10%), Method: PREINCUBATION)?
**A.** inactive; negative

**Q.** And the mutagenic call (Test System: AMES SALMONELLA TYPHIMURIUM, Strain/Indicator: TA98, Metabolic Activation: HAMSTER, LIVER, S-9, AROCLOR 1254 (10%), Method: PREINCUBATION)?
**A.** inactive; negative

**Q.** What about the mutagenic call (Test System: AMES SALMONELLA TYPHIMURIUM, Strain/Indicator: TA98, Metabolic Activation: NONE, Method: PREINCUBATION) of the same compound?
**A.** active; positive

**Q.** And the mutagenic call (Test System: AMES SALMONELLA TYPHIMURIUM, Strain/Indicator: TA98, Metabolic Activation: RAT, LIVER, S-9, AROCLOR 1254 (10%), Method: PREINCUBATION)?
**A.** inactive; negative

**Q.** What about the mutagenic call (Test System: AMES SALMONELLA TYPHIMURIUM, Strain/Indicator: TA98, Metabolic Activation: RAT, LIVER, S-9, KANECHLOR 500, Method: PREINCUBATION) of the same compound?
**A.** active; positive

**Q.** What about the mutagenic call (Test System: AMES SALMONELLA TYPHIMURIUM, Strain/Indicator: TA100, Metabolic Activation: HAMSTER, LIVER, S-9, AROCLOR 1254 (5 OR 30%), Method: PREINCUBATION) of the same compound?
**A.** inactive; negative

**Q.** What about the mutagenic call (Test System: AMES SALMONELLA TYPHIMURIUM, Strain/Indicator: TA100, Metabolic Activation: HAMSTER, LIVER, S-9, AROCLOR 1254, FLAVIN MONONUCLEOTIDE, Method: PREINCUBATION) of the same compound?
**A.** inactive; negative

**Q.** And the mutagenic call (Test System: AMES SALMONELLA TYPHIMURIUM, Strain/Indicator: TA100, Metabolic Activation: HAMSTER, LIVER, S-9, AROCLOR 1254, Method: PREINCUBATION)?
**A.** inactive; negative

**Q.** What about the mutagenic call (Test System: AMES SALMONELLA TYPHIMURIUM, Strain/Indicator: TA100, Metabolic Activation: RAT, LIVER, S-9, AROCLOR 1254 (5 OR 30%), Method: PREINCUBATION) of the same compound?
**A.** inactive; negative

**Q.** What about the mutagenic call (Test System: AMES SALMONELLA TYPHIMURIUM, Strain/Indicator: TA100, Metabolic Activation: RAT, LIVER, S-9, AROCLOR 1254 (10%), Method: PREINCUBATION) of the same compound?
**A.** inactive; negative

**Q.** And the mutagenic call (Test System: AMES SALMONELLA TYPHIMURIUM, Strain/Indicator: TA100, Metabolic Activation: RAT, LIVER, S-9, AROCLOR 1254, FLAVIN MONONUCLEOTIDE, Method: PREINCUBATION)?
**A.** inactive; negative

**Q.** And the mutagenic call (Test System: AMES SALMONELLA TYPHIMURIUM, Strain/Indicator: TA100, Metabolic Activation: RAT, LIVER, S-9, AROCLOR 1254, Method: STANDARD PLATE)?
**A.** inactive; negative

**Q.** And the mutagenic call (Test System: AMES SALMONELLA TYPHIMURIUM, Strain/Indicator: TA100, Metabolic Activation: RAT, LIVER, S-9, KANECHLOR 500, Method: PREINCUBATION)?
**A.** active; positive

**Q.** What about the mutagenic call (Test System: AMES SALMONELLA TYPHIMURIUM, Strain/Indicator: TA1535, Metabolic Activation: HAMSTER, LIVER, S-9, AROCLOR 1254 (10%), Method: PREINCUBATION) of the same compound?
**A.** inactive; negative

**Q.** And the mutagenic call (Test System: AMES SALMONELLA TYPHIMURIUM, Strain/Indicator: TA1535, Metabolic Activation: NONE, Method: PREINCUBATION)?
**A.** inactive; negative

**Q.** And the mutagenic call (Test System: AMES SALMONELLA TYPHIMURIUM, Strain/Indicator: TA1535, Metabolic Activation: RAT, LIVER, S-9, AROCLOR 1254 (10%), Method: PREINCUBATION)?
**A.** inactive; negative

**Q.** And the mutagenic call (Test System: AMES SALMONELLA TYPHIMURIUM, Strain/Indicator: TA1537, Metabolic Activation: NONE, Method: PREINCUBATION)?
**A.** inactive; negative

**Q.** What about the mutagenic call (Test System: AMES SALMONELLA TYPHIMURIUM, Strain/Indicator: TA1538, Metabolic Activation: NONE, Method: PREINCUBATION) of the same compound?
**A.** active; positive

**Q.** With ClCc1cccc(CCl)c1 as the compound, how does the mutagenic call [1] read?
**A.** inactive; negative

**Q.** How did the mutagenic call (Test System: AMES SALMONELLA TYPHIMURIUM, Strain/Indicator: TA100, Metabolic Activation: RAT LIVER S-9, PHENOBARBITAL AND 5,6-BENZOFLAVONE, Method: PREINCUBATION) turn out when Fc1cc(F)c2ncccc2c1F was run?
**A.** active; positive

**Q.** How did the mutagenic call (Test System: AMES SALMONELLA TYPHIMURIUM, Strain/Indicator: TA98, Metabolic Activation: HAMSTER, LIVER, S-9, AROCLOR 1254 (10%), Method: STANDARD PLATE) turn out when O=C1c2ccc3nc(-c4ccccc4)sc3c2C(=O)c2ccc3nc(-c4ccccc4)sc3c21 was run?
**A.** inactive; negative

**Q.** What about the mutagenic call [1] of the same compound?
**A.** inactive; negative

**Q.** And the mutagenic call (Test System: AMES SALMONELLA TYPHIMURIUM, Strain/Indicator: TA98, Metabolic Activation: RAT, LIVER, S-9, AROCLOR 1254 (10%), Method: STANDARD PLATE)?
**A.** inactive; negative

**Q.** And the mutagenic call (Test System: AMES SALMONELLA TYPHIMURIUM, Strain/Indicator: TA100, Metabolic Activation: HAMSTER, LIVER, S-9, AROCLOR 1254 (10%), Method: STANDARD PLATE)?
**A.** inactive; negative

**Q.** What about the mutagenic call [2] of the same compound?
**A.** inactive; negative

**Q.** And the mutagenic call (Test System: AMES SALMONELLA TYPHIMURIUM, Strain/Indicator: TA100, Metabolic Activation: RAT, LIVER, S-9, AROCLOR 1254 (10%), Method: STANDARD PLATE)?
**A.** inactive; negative

**Q.** What about the mutagenic call (Test System: AMES SALMONELLA TYPHIMURIUM, Strain/Indicator: TA1535, Metabolic Activation: HAMSTER, LIVER, S-9, AROCLOR 1254 (10%), Method: STANDARD PLATE) of the same compound?
**A.** inactive; negative

**Q.** And the mutagenic call [3]?
**A.** inactive; negative

**Q.** What about the mutagenic call (Test System: AMES SALMONELLA TYPHIMURIUM, Strain/Indicator: TA1535, Metabolic Activation: RAT, LIVER, S-9, AROCLOR 1254 (10%), Method: STANDARD PLATE) of the same compound?
**A.** inactive; negative

**Q.** What about the mutagenic call (Test System: AMES SALMONELLA TYPHIMURIUM, Strain/Indicator: TA1537, Metabolic Activation: HAMSTER, LIVER, S-9, AROCLOR 1254 (10%), Method: STANDARD PLATE) of the same compound?
**A.** inactive; negative

**Q.** What about the mutagenic call [4] of the same compound?
**A.** inactive; negative

**Q.** And the mutagenic call (Test System: AMES SALMONELLA TYPHIMURIUM, Strain/Indicator: TA1537, Metabolic Activation: RAT, LIVER, S-9, AROCLOR 1254 (10%), Method: STANDARD PLATE)?
**A.** inactive; negative

**Q.** And the mutagenic call (Test System: AMES SALMONELLA TYPHIMURIUM, Strain/Indicator: TA1538, Metabolic Activation: HAMSTER, LIVER, S-9, AROCLOR 1254 (10%), Method: STANDARD PLATE)?
**A.** inactive; negative

**Q.** And the mutagenic call (Test System: AMES SALMONELLA TYPHIMURIUM, Strain/Indicator: TA1538, Metabolic Activation: NONE, Method: STANDARD PLATE)?
**A.** inactive; negative

**Q.** What about the mutagenic call (Test System: AMES SALMONELLA TYPHIMURIUM, Strain/Indicator: TA1538, Metabolic Activation: RAT, LIVER, S-9, AROCLOR 1254 (10%), Method: STANDARD PLATE) of the same compound?
**A.** inactive; negative

**Q.** And the mutagenic call (Test System: MOUSE LYMPHOMA, Strain/Indicator: L5178Y (TK+/TK-), Metabolic Activation: NONE, Method: SUSPENSION/PLATE)?
**A.** inactive; negative

**Q.** And the mutagenic call (Test System: MOUSE LYMPHOMA, Strain/Indicator: L5178Y (TK+/TK-), Metabolic Activation: RAT, LIVER, S-9, AROCLOR 1254, Method: SUSPENSION/PLATE)?
**A.** active; positive
